Reference: ChEMBL document CHEMBL3832088, “DailyMed|setid=abbf31eb-9966-411a-9c5d-91025ff7a782 | ZARAH- drospirenone and ethinyl estradiol | Watson Pharma, Inc”
Values joined by “and” are separate entries in the source; they are usually repeats but may differ in a detail not shown here. Equal entries are not always repeated.

Key:
[1] = (§1) Evaluation of pharmacokinetic parameters for Drosporine following multiple co-administration of 3 mg Drosporine tablets and […] ethinyl estradiol to 12 healthy female subjects.; assay type: ADME, organism-based; design: dose 3 mg, route oral; details: human, in vivo, dose 3 mg, dosed compound id 30, dosed compound name DROSPIRENONE, gender female, regimen Once daily, route oral, study dosing duration 21 days, tissue Serum
Homo sapiens = experiment: as §1; assay type: ADME, organism-based; design: dose 3 mg, route oral; details: in vivo, po, dosed compound id 30, dosed compound name DROSPIRENONE, gender female, regimen Once daily, study dosing duration 21 days, tissue Serum
[2] = dose 3 mg, sampling time1 21 day

## C[C@]12CCC(=O)C=C1[C@@H]1C[C@@H]1[C@H]1[C@@H]3[C@@H]4C[C@@H]4[C@@]4(CCC(=O)O4)[C@@]3(C)CC[C@@H]12 [DROSPIRENONE]
[1]; sampling time1 1 day
  Tmax: 1.7 h
[1]; sampling time1 21 day
  half-life: 32.5 h
Homo sapiens; [2]
  Tmax: 1.8 h and 1.6 h
  t1/2: 31.4 h
Homo sapiens; sampling time1 1 day
  AUC(0-24): 288 ng·h/mL
  Cmax: 36.9 ng/mL
Homo sapiens; sampling time1 21 day
  AUC(0-24): 957 ng.hr/mL [middle of 4 runs]
  Cmax: 84.2 ng/mL [middle of 4 runs]
